Test results: US20050261194A1, “Use of thymulin-like peptides for making pain-relieving medicines” (priority 2001, published 2005)

System: rats
Experiment: Localized inflammatory hyperalgesia induced by intraplantar injection of endotoxin (ET); PP, PI, HP, TF pain tests
Format: in vivo, rat
Description: The experiments were conducted using adult, male Sprague-Dewless rats weighing between 200 and 250 g. The animals were reared under optimum conditions of light and temperature (12 h light and shadow cycle; 22±3° C.). Food and water were dispensed ad libitum. All of the experiments were conducted in compliance with the ethical directives relative to pain experiments done on animals in the conscious state (Zimmermann M., 1983, Ethical guidelines for investigations of experimental pain in conscious animals, Pain, 16:109-110) and they were approved by the Institutional Review Board for animal care.
Thermal and mechanical pain tests were done over a period of 3 consecutive days prior to the injections, in order to establish a baseline.
The mechanical nociceptive threshold was determined by the mechanical paw pressure test (PP), while that of the thermal nociceptive threshold was determined using the hot-plate (HP), the paw immersion in hot water (PI) and the tail flick (TF) tests.
The PP test is done by applying a constant pressure of 0.20 g/cm^2 alternatingly to the left and right hind paws in an interval of 5 minutes between 2 consecutive pressure applications.
In the HP test, the animals are placed individually on a hot plate (52.5° C.±0.3° C.). The pain threshold is measured by the latency period lapsed between the moment, at which the animal is placed on the hot plate and the first sign of pain, indicated by the fact that the animal licks the paw or jumps.
In the PI test, the hind paws are wetted alternately in distilled water at 48° C. and the latency time lapsed until the first sign of withdrawal of the paw is noted.
In the TF test, the tail of each animal is immersed in distilled water at 50.5° C. The latency time taken by the animal to withdraw it is noted. The results are based on 3 consecutive trials done in 5 minute intervals.
In the so-called localized model, the rats received on intraplantar injection of a solution (1.25 μg in 50 μl of […]) of endotoxin (Salmonella typhasa lipopolysaccharides, Sigma) into one of the hind paws, which induces both thermal and mechanical hyperalgesia restricted to the paw having received the injection.
Various treatments are then possible • Protocol 1(a): different groups of rats (n=5 in each group) were treated with the analogue peptide (TAP) Glu-Ala-lys-Ser-Gln-Gly-Gly-Ser-Asp (synthesized by Quantum Biotechnologies, Inc., Canada), in the following fashion : • either, they received one intraperitoneal injection (25 μg in 50 μl of physiological saline solution) of this peptide; • or, they were pretreated with different doses of this peptide (1.5 and 25 μg in 50 μl of sodium chloride) by intraperitoneal injection, 30 minutes prior to injection of endotoxins (ET) (1.25 μg in 50 μl of physiological saline solution by intraplantar injection). • Protocol 1(b): other experiments looked at comparing the efficacy of the analog peptides with that of steroids, NSAIDs and peptides known for their antagonism of the hyperalgesia induced by IL-1β and the prostaglandins.
One group of rats was pretreated with intraperitoneal injections of Lys-D-Pro-Thr (10 mg/kg) in 100 μl of physiological saline solution, 30 minutes prior to injection of TAP. This tripeptide is know for its antagonism of the hyperalgesia induced by IL-1β only.
In the second group, the rats received intraperitoneal injections of the Lys-D-Pro-Val tripeptide (10 mg/kg) in 100 μl of saline solution, 30 minutes prior to the injection of TAP. Lys-D-Pro-Val is an antagonist of the hyperalgesia induced by IL-1β and PEG2.
A third and a fourth group were treated with dexamethasone and indomethacin.
Dexamethasone phosphate dissolved in a […] sodium solution was injected, at a concentration of 200 μg/kg, just before and 3 hours after the injection of ET. […]

Substance: Glu-Ala-lys-Ser-Gln-Gly-Gly-Ser-Asp (SQGGSD; N-terminal Glu-Ala-Lys; printed: Ser-Gln-Gly-Gly-Ser-Asp) [TAP]
- effect compared with indomethacin and dexamethasone (ET 1.25 μg intraplantar, indomethacin 4 mg/kg, dexamethasone 200 μg/kg, FIG. 2): effects similar to those of indomethacin and dexamethasone but at much lower concentrations
- analgesic efficacy compared with Lys-D-Pro-Val and Lys-D-Pro-Thr peptides (ET 1.25 μg intraplantar, tripeptides 10 mg/kg i.p., FIG. 2): much more efficacious analgesic agent
- latency, paw pressure (PP) test (TAP 25 μg i.p. 30 min before ET 1.25 μg intraplantar, 9 h after ET, ET alone 0.87±0.09 s, saline 2.06±0.06 s): 2.05 ± 0.07 s
- latency, paw immersion (PI) test (TAP 25 μg i.p. 30 min before ET 1.25 μg intraplantar, 9 h after ET, ET alone 1.25±0.04 s, saline 1.97±0.05 s): 1.94 ± 0.005 s
- latency, tail flick (TF) test (TAP 25 μg i.p. 30 min before ET 1.25 μg intraplantar, 9 h after ET, ET alone 2.40±0.06 s, saline 3.19±0.08 s): 3.22 ± 0.09 s
- latency, hot-plate (HP) test (TAP 25 μg i.p. 30 min before ET 1.25 μg intraplantar, 9 h after ET, ET alone 6.0±0.18, saline 9.24±0.16 s): 9.12 ± 0.7 s
- effect on hyperalgesia induced by intraplantar ET (TAP 1.5 and 25 μg i.p. pretreatment, FIG. 1): reduced in dose-dependent fashion the hyperalgesia
- change in latency time in the pain tests, TAP alone (TAP alone 25 μg in 50 μl saline i.p., no ET): did not result in significant change in the latency time
